Test system: CN0375-F725-PDC KRAS spheroid viability
Assay: Anticancer human tumor CN0375-F725-PDC patient-derived colon carcinoma cell line growth inhibition [KRAS2]
Conditions: spheroids with HUVEC and MSC; for IC50: curve of first compound; for viability, T/C: stronger effect = lower value
Summary of the method: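 Combination screen of spheroid viability in tumor-cell co-cultures with endothelial (HUVEC) and mesenchymal stem cell stroma. Each agent was tested in half-log dilutions, topping at clinical Cmax or at 10 microM without a known Cmax.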

[1] = second compound 0.0316 µM, first compound 0.0316 µM
[2] = second compound 0.0316 µM, first compound 0.1 µM
[3] = second compound 0.1 µM, first compound 0.0316 µM
[4] = second compound 0.1 µM, first compound 0.1 µM
[5] = second compound 0.316 µM, first compound 0.0316 µM
[6] = second compound 0.316 µM, first compound 0.1 µM
[7] = second compound 1 µM, first compound 0.0316 µM
[8] = second compound 1 µM, first compound 0.1 µM
[9] = second compound 3.16 µM, first compound 0.0316 µM
[10] = second compound 3.16 µM, first compound 0.1 µM
[11] = second compound 0.0316 µM, first compound 0.316 µM
[12] = second compound 0.0316 µM, first compound 1 µM
[13] = second compound 0.0316 µM, first compound 3.16 µM
[14] = second compound 0.0316 µM, first compound 10 µM
[15] = second compound 0.1 µM, first compound 0.316 µM
[16] = second compound 0.1 µM, first compound 1 µM
[17] = second compound 0.1 µM, first compound 3.16 µM
[18] = second compound 0.1 µM, first compound 10 µM
[19] = second compound 0.316 µM, first compound 0.316 µM
[20] = second compound 0.316 µM, first compound 1 µM
[21] = second compound 0.316 µM, first compound 3.16 µM
[22] = second compound 0.316 µM, first compound 10 µM
[23] = second compound 1 µM, first compound 0.316 µM
[24] = second compound 1 µM, first compound 1 µM
[25] = second compound 1 µM, first compound 3.16 µM
[26] = second compound 1 µM, first compound 10 µM
[27] = second compound 3.16 µM, first compound 0.316 µM
[28] = second compound 3.16 µM, first compound 1 µM
[29] = second compound 3.16 µM, first compound 3.16 µM
[30] = second compound 3.16 µM, first compound 10 µM
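Further: spheroids exposed to agents for 7 days.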

Row | SMILES | IC50 (second compound 0.0316 µM) [nM] | IC50 (second compound 0.1 µM) [nM] | IC50 (second compound 0.316 µM) [nM] | IC50 (second compound 1 µM) [nM] | IC50 (second compound 3.16 µM) [nM] | viability, T/C [1] [%] | viability, T/C [2] [%] | viability, T/C [3] [%] | viability, T/C [4] [%] | viability, T/C [5] [%] | viability, T/C [6] [%] | viability, T/C [7] [%] | viability, T/C [8] [%] | viability, T/C [9] [%] | viability, T/C [10] [%] | viability, T/C [11] [%] | viability, T/C [12] [%] | viability, T/C [13] [%] | viability, T/C [14] [%] | viability, T/C [15] [%] | also measured
1 | CC(C)n1nc(-c2ccc3oc(N)nc3c2)c2c(N)ncnc21 + C=CC(=O)N1CCN(c2nc(OCC3CCCN3C)nc3c2CCN(c2cccc4cccc(C)c24)C3)CC1CC#N | 54.2 | 39.2 | 56.6 | 42.7 | < 0.316 | 57.5 | 42.4 | 51.9 | 43.9 | 56.6 | 45 | 53.2 | 46.1 | 11.5 | 8.34 |  |  |  |  |  | viability, T/C (second compound 0.0316 µM, first compound 0.000316 µM): 106%; viability, T/C (second compound 0.0316 µM, first compound 0.001 µM): 96.5%; viability, T/C (second compound 0.0316 µM, first compound 0.00316 µM): 76.8%; viability, T/C (second compound 0.0316 µM, first compound 0.01 µM): 70.1%; viability, T/C (second compound 0.1 µM, first compound 0.000316 µM): 103%; viability, T/C (second compound 0.1 µM, first compound 0.001 µM): 95.2%; viability, T/C (second compound 0.1 µM, first compound 0.00316 µM): 78.8%; viability, T/C (second compound 0.1 µM, first compound 0.01 µM): 63.8%; viability, T/C (second compound 0.316 µM, first compound 0.000316 µM): 103%; viability, T/C (second compound 0.316 µM, first compound 0.001 µM): 98%; viability, T/C (second compound 0.316 µM, first compound 0.00316 µM): 78.3%; viability, T/C (second compound 0.316 µM, first compound 0.01 µM): 63.7%; viability, T/C (second compound 1 µM, first compound 0.000316 µM): 87.4%; viability, T/C (second compound 1 µM, first compound 0.001 µM): 91.2%; viability, T/C (second compound 1 µM, first compound 0.00316 µM): 75.1%; viability, T/C (second compound 1 µM, first compound 0.01 µM): 60%; viability, T/C (second compound 3.16 µM, first compound 0.000316 µM): 37.8%; viability, T/C (second compound 3.16 µM, first compound 0.001 µM): 11.5%; viability, T/C (second compound 3.16 µM, first compound 0.00316 µM): 31.4%; viability, T/C (second compound 3.16 µM, first compound 0.01 µM): 1.09%
2 | COc1cc(Nc2ncc3c(n2)-c2ccc(Cl)cc2C(c2c(F)cccc2OC)=NC3)ccc1C(=O)O + C=CC(=O)N1CCN(c2nc(OCC3CCCN3C)nc3c2CCN(c2cccc4cccc(C)c24)C3)CC1CC#N | > 10000 | > 10000 | > 10000 | > 10000 | < 31.6 | 96.6 | 108 | 109 | 105 | 103 | 101 | 88.3 | 90.8 | 16.5 | 23 | 91.8 | 95 | 93.9 | 74.9 | 91.3 | viability, T/C [16]: 92.5%; viability, T/C [17]: 95.9%; viability, T/C [18]: 79.3%; viability, T/C [19]: 94.8%; viability, T/C [20]: 91.8%; viability, T/C [21]: 88%; viability, T/C [22]: 75.7%; viability, T/C [23]: 82.9%; viability, T/C [24]: 83.2%; viability, T/C [25]: 83.9%; viability, T/C [26]: 73.8%; viability, T/C [27]: 14%; viability, T/C [28]: 44.8%; viability, T/C [29]: 42.3%; viability, T/C [30]: 22.3%
3 | COc1cc2nccc(Oc3ccc(NC(=O)C4(C(=O)Nc5ccc(F)cc5)CC4)cc3)c2cc1OC + C=CC(=O)N1CCN(c2nc(OCC3CCCN3C)nc3c2CCN(c2cccc4cccc(C)c24)C3)CC1CC#N | > 10000 | > 10000 | > 10000 | 1910 | < 31.6 | 106 | 100 | 101 | 101 | 96.6 | 100 | 95.5 | 92 | 14.4 | 18.7 | 91.3 | 85.9 | 61.1 | 69.8 | 92.6 | viability, T/C [16]: 83.2%; viability, T/C [17]: 53.8%; viability, T/C [18]: 68.9%; viability, T/C [19]: 85.9%; viability, T/C [20]: 80.7%; viability, T/C [21]: 56.9%; viability, T/C [22]: 52.8%; viability, T/C [23]: 90.7%; viability, T/C [24]: 75.7%; viability, T/C [25]: 29.9%; viability, T/C [26]: 9.59%; viability, T/C [27]: 3.2%; viability, T/C [28]: 0.26%; viability, T/C [29]: 0.13%; viability, T/C [30]: 0.17%

— PubChem BioAssay AID1963860 (Molecular Pharmacology Branch, DTP, NCI, 2024)
